Reference: patent publication US12723063B2, “GIPR-agonist compounds” (Eli Lilly and Company, priority 2019, dated 2026)
*1 amine or outer side, *2 acyl side, *3 side chain or, on linkers, in order; H or OH if unused. Where a SMILES comes first, the peptide text is derived from it. Side-chain parts run from the residue outwards. [ ]: non-standard residue; d: D form. The star is where a group is joined. C20 diacid = O=C(O)CCCCCCCCCCCCCCCCCCC(=O)*; αMePhe(2-F) = C[C@](N)(Cc1ccccc1F)C(=O)O; γGlu = O=C(O)[C@H](CCC(=O)[*:2])N[*:1]; αMeF = C[C@](N)(Cc1ccccc1)C(=O)O; 4Pal = N[C@@H](Cc1ccncc1)C(=O)O; αMeL = CC(C)C[C@](C)(N)C(=O)O; AEEA = NCCOCCOCC(=O)O; Aib = CC(C)(N)C(=O)O

Columns and labels:
human GIPR = target: T1, human GIPR (Homo sapiens, UniProt P48546); test: [125I]-GIP binding, SPA with WGA beads, 0.1% bacitracin; conditions: geometric mean, read-out: hGIPR Ki
T1 construct: expressed in transfected cells; crude membranes
T1 sequence (P48546 22-466): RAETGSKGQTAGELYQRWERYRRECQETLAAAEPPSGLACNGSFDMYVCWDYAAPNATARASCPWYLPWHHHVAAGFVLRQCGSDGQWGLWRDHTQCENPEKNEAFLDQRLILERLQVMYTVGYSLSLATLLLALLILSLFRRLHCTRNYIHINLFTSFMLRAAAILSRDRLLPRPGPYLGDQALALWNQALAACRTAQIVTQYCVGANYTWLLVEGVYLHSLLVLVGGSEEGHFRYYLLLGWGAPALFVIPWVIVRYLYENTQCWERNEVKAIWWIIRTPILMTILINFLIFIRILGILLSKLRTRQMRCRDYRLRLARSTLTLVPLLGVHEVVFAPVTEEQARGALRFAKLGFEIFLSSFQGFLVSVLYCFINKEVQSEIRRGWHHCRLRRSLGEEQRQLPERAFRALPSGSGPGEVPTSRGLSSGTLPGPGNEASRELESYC
How it was run: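 Ki values are geometric means (SEM, n independent days), derived from four-parameter nonlinear regression of IC50. Membranes came from hGIPR-expressing CHO cells.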

human GLP-1R = target: T2, human GLP-1R (Homo sapiens, UniProt P43220); test: [125I]-GLP-1 binding, SPA with WGA beads, 0.1% bacitracin; conditions: geometric mean, read-out: hGLP1R Ki
T2 construct: expressed in transfected cells; crude membranes
How it was run: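 Binding buffer was 25 mM HEPES pH 7.4 with 2.5 mM CaCl2, 1 mM MgCl2, 0.1% (w/v) bacitracin, 0.003% Tween-20 and EDTA-free protease inhibitors. Four-parameter regression gave IC50, converted to Ki (geometric mean, SEM, n independent days).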

T2 sequence (P43220 24-463): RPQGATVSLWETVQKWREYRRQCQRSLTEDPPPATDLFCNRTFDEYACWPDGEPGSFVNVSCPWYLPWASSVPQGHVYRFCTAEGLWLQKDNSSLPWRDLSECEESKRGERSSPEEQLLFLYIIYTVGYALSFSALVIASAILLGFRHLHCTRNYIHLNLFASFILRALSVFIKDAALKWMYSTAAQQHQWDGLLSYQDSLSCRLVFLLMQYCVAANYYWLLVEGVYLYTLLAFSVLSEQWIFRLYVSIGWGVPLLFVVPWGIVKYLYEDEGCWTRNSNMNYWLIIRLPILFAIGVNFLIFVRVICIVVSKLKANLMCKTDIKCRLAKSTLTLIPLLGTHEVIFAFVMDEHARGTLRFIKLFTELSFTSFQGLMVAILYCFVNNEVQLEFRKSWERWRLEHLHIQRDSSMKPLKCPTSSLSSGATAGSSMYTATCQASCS

| SMILES | Ki (human GIPR) | Ki (human GLP-1R) |
| --- | --- | --- |
| CC[C@H](C)[C@H](NC(=O)[C@H](Cc1ccccc1)NC(=O)[C@@H](NC(=O)CNC(=O)[C@H](CCC(=O)O)NC(=O)C(C)(C)NC(=O)[C@@H](N)Cc1ccc(O)cc1)[C@@H](C)O)C(=O)N[C@@H](CO)C(=O)N[C@@H](CC(=O)O)C(=O)N[C@@H](Cc1ccc(O)cc1)C(=O)N[C@@H](CO)C(=O)N[C@H](C(=O)N[C@@](C)(CC(C)C)C(=O)N[C@@H](CC(C)C)C(=O)N[C@@H](CC(=O)O)C(=O)N[C@@H](CCCCN)C(=O)N[C@@H](CCCCNC(=O)COCCOCCNC(=O)COCCOCCNC(=O)CC[C@H](NC(=O)CCCCCCCCCCCCCCCCCCC(=O)O)C(=O)O)C(=O)N[C@@H](Cc1c[nH]cn1)C(=O)N[C@@H](CCC(N)=O)C(=O)NC(C)(C)C(=O)N[C@@H](CC(=O)O)C(=O)N[C@@H](Cc1ccccc1)C(=O)N[C@H](C(=O)N[C@@H](CCC(=O)O)C(=O)N[C@@H](Cc1ccc(O)cc1)C(=O)N[C@@H](CC(C)C)C(=O)N[C@@H](CC(C)C)C(=O)N[C@@H](CCC(=O)O)C(=O)N[C@H](C(=O)NCC(=O)N1CCC[C@H]1C(=O)N[C@@H](CO)C(=O)N[C@@H](CO)C(=O)NCC(=O)N[C@@H](C)C(=O)N1CCC[C@H]1C(=O)N1CCC[C@H]1C(=O)N1CCC[C@H]1C(=O)N[C@@H](CO)C(N)=O)[C@@H](C)O)C(C)C)[C@@H](C)CC [Example 66] (H-Y[Aib]EGTFISDYSI[αMeL]LDKK([AEEA-AEEA-γGlu-C20 diacid])HQ[Aib]DFVEYLLETGPSSGAPPPS-NH2) | 0.0866 nM | 326 nM |
| CC[C@H](C)[C@H](NC(=O)[C@H](Cc1ccccc1)NC(=O)[C@@H](NC(=O)CNC(=O)[C@H](CCC(=O)O)NC(=O)C(C)(C)NC(=O)[C@@H](N)Cc1ccc(O)cc1)[C@@H](C)O)C(=O)N[C@@H](CO)C(=O)N[C@@H](CC(=O)O)C(=O)N[C@@H](Cc1ccc(O)cc1)C(=O)N[C@@H](CO)C(=O)N[C@H](C(=O)N[C@@](C)(CC(C)C)C(=O)N[C@@H](CC(C)C)C(=O)N[C@@H](CC(=O)O)C(=O)N[C@@H](CCCCN)C(=O)N[C@@H](CCCCNC(=O)COCCOCCNC(=O)COCCOCCNC(=O)CC[C@H](NC(=O)CCCCCCCCCCCCCCCCCCC(=O)O)C(=O)O)C(=O)N[C@@H](Cc1c[nH]cn1)C(=O)N[C@@H](CCC(N)=O)C(=O)NC(C)(C)C(=O)N[C@@H](CC(=O)O)C(=O)N[C@@H](Cc1ccccc1)C(=O)N[C@H](C(=O)N[C@@H](CCC(=O)O)C(=O)N[C@@H](Cc1ccncc1)C(=O)N[C@@H](CC(C)C)C(=O)N[C@@H](CC(C)C)C(=O)N[C@@H](C)C(=O)N[C@H](C(=O)NCC(=O)N1CCC[C@H]1C(=O)N[C@@H](CO)C(=O)N[C@@H](CO)C(=O)NCC(=O)N[C@@H](C)C(=O)N1CCC[C@H]1C(=O)N1CCC[C@H]1C(=O)N1CCC[C@H]1C(=O)N[C@@H](CO)C(N)=O)[C@@H](C)O)C(C)C)[C@@H](C)CC [Example 70] (H-Y[Aib]EGTFISDYSI[αMeL]LDKK([AEEA-AEEA-γGlu-C20 diacid])HQ[Aib]DFVE[4Pal]LLATGPSSGAPPPS-NH2) | 0.0421 nM | 570 nM |
| CC[C@H](C)[C@H](NC(=O)[C@H](Cc1ccccc1)NC(=O)[C@@H](NC(=O)CNC(=O)[C@H](CCC(=O)O)NC(=O)C(C)(C)NC(=O)[C@@H](N)Cc1ccc(O)cc1)[C@@H](C)O)C(=O)N[C@@H](CO)C(=O)N[C@@H](CC(=O)O)C(=O)N[C@@H](Cc1ccc(O)cc1)C(=O)N[C@@H](CO)C(=O)N[C@H](C(=O)N[C@@](C)(CC(C)C)C(=O)N[C@@H](CC(C)C)C(=O)N[C@@H](CC(=O)O)C(=O)N[C@@H](CCCCN)C(=O)N[C@@H](CCCCNC(=O)COCCOCCNC(=O)COCCOCCNC(=O)CC[C@H](NC(=O)CCCCCCCCCCCCCCCCCCC(=O)O)C(=O)O)C(=O)N[C@@H](Cc1c[nH]cn1)C(=O)N[C@@H](CCC(N)=O)C(=O)NC(C)(C)C(=O)N[C@@H](CCC(=O)O)C(=O)N[C@@H](Cc1ccccc1)C(=O)N[C@H](C(=O)N[C@@H](CCC(=O)O)C(=O)N[C@@H](Cc1ccncc1)C(=O)N[C@@H](CC(C)C)C(=O)N[C@@H](CC(C)C)C(=O)N[C@@H](C)C(=O)N[C@H](C(=O)NCC(=O)N1CCC[C@H]1C(=O)N[C@@H](CO)C(=O)N[C@@H](CO)C(=O)NCC(=O)N[C@@H](C)C(=O)N1CCC[C@H]1C(=O)N1CCC[C@H]1C(=O)N1CCC[C@H]1C(=O)N[C@@H](CO)C(N)=O)[C@@H](C)O)C(C)C)[C@@H](C)CC [Example 58] (H-Y[Aib]EGTFISDYSI[αMeL]LDKK([AEEA-AEEA-γGlu-C20 diacid])HQ[Aib]EFVE[4Pal]LLATGPSSGAPPPS-NH2) | 0.0324 nM | 459 nM |
| CC[C@H](C)[C@H](NC(=O)[C@H](Cc1ccccc1)NC(=O)[C@@H](NC(=O)CNC(=O)[C@H](CCC(=O)O)NC(=O)C(C)(C)NC(=O)[C@@H](N)Cc1ccc(O)cc1)[C@@H](C)O)C(=O)N[C@@H](CO)C(=O)N[C@@H](CC(=O)O)C(=O)N[C@@H](Cc1ccc(O)cc1)C(=O)N[C@@H](CO)C(=O)N[C@H](C(=O)N[C@@](C)(CC(C)C)C(=O)N[C@@H](CC(C)C)C(=O)N[C@@H](CC(=O)O)C(=O)N[C@@H](CCCCN)C(=O)N[C@@H](CCCCNC(=O)COCCOCCNC(=O)COCCOCCNC(=O)CC[C@H](NC(=O)CCCCCCCCCCCCCCCCCCC(=O)O)C(=O)O)C(=O)N[C@@H](Cc1c[nH]cn1)C(=O)N[C@@H](CCC(N)=O)C(=O)NC(C)(C)C(=O)N[C@@H](CCC(=O)O)C(=O)N[C@@H](Cc1ccccc1)C(=O)N[C@H](C(=O)N[C@@H](CCC(=O)O)C(=O)N[C@@H](Cc1ccc(O)cc1)C(=O)N[C@@H](CC(C)C)C(=O)N[C@@H](CC(C)C)C(=O)N[C@@H](CCC(=O)O)C(=O)N[C@@H](C)C(=O)NCC(=O)N1CCC[C@H]1C(=O)N[C@@H](CO)C(=O)N[C@@H](CO)C(=O)NCC(=O)N[C@@H](C)C(=O)N1CCC[C@H]1C(=O)N1CCC[C@H]1C(=O)N1CCC[C@H]1C(=O)N[C@@H](CO)C(N)=O)C(C)C)[C@@H](C)CC [Example 65] (H-Y[Aib]EGTFISDYSI[αMeL]LDKK([AEEA-AEEA-γGlu-C20 diacid])HQ[Aib]EFVEYLLEAGPSSGAPPPS-NH2) | 0.0316 nM | 305 nM |
| CC[C@H](C)[C@H](NC(=O)[C@H](CO)NC(=O)[C@H](Cc1ccc(O)cc1)NC(=O)[C@H](CC(=O)O)NC(=O)[C@H](CO)NC(=O)[C@@H](NC(=O)[C@](C)(Cc1ccccc1F)NC(=O)[C@@H](NC(=O)CNC(=O)[C@H](CCC(=O)O)NC(=O)C(C)(C)NC(=O)[C@@H](N)Cc1ccc(O)cc1)[C@@H](C)O)[C@@H](C)CC)C(=O)N[C@@H](C)C(=O)N[C@@H](CC(C)C)C(=O)N[C@@H](CC(=O)O)C(=O)N[C@@H](CCCCN)C(=O)N[C@@H](CCCCNC(=O)COCCOCCNC(=O)COCCOCCNC(=O)CC[C@H](NC(=O)CCCCCCCCCCCCCCCCCCC(=O)O)C(=O)O)C(=O)N[C@@H](Cc1c[nH]cn1)C(=O)N[C@@H](CCC(N)=O)C(=O)NC(C)(C)C(=O)N[C@@H](CC(=O)O)C(=O)N[C@@H](Cc1ccccc1)C(=O)N[C@H](C(=O)N[C@@H](CCC(=O)O)C(=O)N[C@@H](Cc1ccncc1)C(=O)N[C@@H](CC(C)C)C(=O)N[C@@H](CC(C)C)C(=O)N[C@@H](CCC(=O)O)C(=O)N[C@H](C(=O)NCC(=O)N1CCC[C@H]1C(=O)N[C@@H](CO)C(=O)N[C@@H](CO)C(=O)NCC(=O)N[C@@H](C)C(=O)N1CCC[C@H]1C(=O)N1CCC[C@H]1C(=O)N1CCC[C@H]1C(=O)N[C@@H](CO)C(N)=O)[C@@H](C)O)C(C)C [Example 38] (H-Y[Aib]EGT[αMePhe(2-F)]ISDYSIALDKK([AEEA-AEEA-γGlu-C20 diacid])HQ[Aib]DFVE[4Pal]LLETGPSSGAPPPS-NH2) | 0.0588 nM | 776 nM |
| CC[C@H](C)[C@H](NC(=O)[C@H](CO)NC(=O)[C@H](Cc1ccc(O)cc1)NC(=O)[C@H](CC(=O)O)NC(=O)[C@H](CO)NC(=O)[C@@H](NC(=O)[C@](C)(Cc1ccccc1)NC(=O)[C@@H](NC(=O)CNC(=O)[C@H](CCC(=O)O)NC(=O)C(C)(C)NC(=O)[C@@H](N)Cc1ccc(O)cc1)[C@@H](C)O)[C@@H](C)CC)C(=O)N[C@@](C)(CC(C)C)C(=O)N[C@@H](CC(C)C)C(=O)N[C@@H](CC(=O)O)C(=O)N[C@@H](CCCCN)C(=O)N[C@@H](CCCCNC(=O)COCCOCCNC(=O)COCCOCCNC(=O)CC[C@H](NC(=O)CCCCCCCCCCCCCCCCCCC(=O)O)C(=O)O)C(=O)N[C@@H](Cc1c[nH]cn1)C(=O)N[C@@H](CCC(N)=O)C(=O)NC(C)(C)C(=O)N[C@@H](CCC(=O)O)C(=O)N[C@@H](Cc1ccccc1)C(=O)N[C@H](C(=O)N[C@@H](CCC(=O)O)C(=O)N[C@@H](Cc1ccncc1)C(=O)N[C@@H](CC(C)C)C(=O)N[C@@H](CC(C)C)C(=O)N[C@@H](C)C(=O)N[C@@H](C)C(=O)NCC(=O)N1CCC[C@H]1C(=O)N[C@@H](CO)C(=O)N[C@@H](CO)C(=O)NCC(=O)N[C@@H](C)C(=O)N1CCC[C@H]1C(=O)N1CCC[C@H]1C(=O)N1CCC[C@H]1C(=O)N[C@@H](CO)C(N)=O)C(C)C [Example 62] (H-Y[Aib]EGT[αMeF]ISDYSI[αMeL]LDKK([AEEA-AEEA-γGlu-C20 diacid])HQ[Aib]EFVE[4Pal]LLAAGPSSGAPPPS-NH2) | 0.0414 nM | 47.6 nM |
